IC50 data for 20 compounds are collected here from patent publication US20260217697A1, “COMPOUNDS COMPRISING HETEROARYL RINGS AND COMPOSITIONS AND METHODS THEREOF” (lonGen Therapeutics Co., Ltd., priority 2022, published 2026).

Bounds are passed on as bounds.

The test addresses T1, hTRPV3 (Homo sapiens, UniProt Q8NET8).
T1 construct: The commercially available plasmid with the full-length cDNA of hTRPV3 (791 aa) (NM_001258205.2); host or cells: HEK293T
T1 sequence (Q8NET8 1-791 isoform Q8NET8-2): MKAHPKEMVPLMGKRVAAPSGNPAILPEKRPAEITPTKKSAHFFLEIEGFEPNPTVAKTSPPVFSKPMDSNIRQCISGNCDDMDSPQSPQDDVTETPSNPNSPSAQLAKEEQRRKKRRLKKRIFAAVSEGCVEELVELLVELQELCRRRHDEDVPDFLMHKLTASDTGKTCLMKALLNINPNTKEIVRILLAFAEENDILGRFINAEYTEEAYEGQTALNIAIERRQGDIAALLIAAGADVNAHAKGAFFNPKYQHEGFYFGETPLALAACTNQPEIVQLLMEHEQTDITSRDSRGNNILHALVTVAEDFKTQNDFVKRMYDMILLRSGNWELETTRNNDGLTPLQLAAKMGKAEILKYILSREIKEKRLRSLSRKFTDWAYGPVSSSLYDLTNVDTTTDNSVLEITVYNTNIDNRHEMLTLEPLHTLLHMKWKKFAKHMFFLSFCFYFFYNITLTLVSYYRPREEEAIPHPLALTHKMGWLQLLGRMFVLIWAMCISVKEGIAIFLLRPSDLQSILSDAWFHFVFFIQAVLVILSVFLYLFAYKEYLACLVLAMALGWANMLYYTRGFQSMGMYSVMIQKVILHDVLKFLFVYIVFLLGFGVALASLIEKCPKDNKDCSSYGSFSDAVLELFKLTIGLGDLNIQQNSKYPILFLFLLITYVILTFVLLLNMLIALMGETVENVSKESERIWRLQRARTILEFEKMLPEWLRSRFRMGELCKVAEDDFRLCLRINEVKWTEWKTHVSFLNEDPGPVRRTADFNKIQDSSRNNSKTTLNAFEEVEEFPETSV
The test can be described thus: Whole-cell patch-clamp recording of hTRPV3 current in transfected HEK293T cells (2-APB induced). Type of test: cell-based. As to conditions: current induced by 300 μM 2-APB, compounds tested up to 10 μM, room temperature. The protocol:
Various technologies can be utilized to assess TRPV3 activation in accordance with the present disclosure. For example, in some embodiments, compounds are assessed in in vitro patch clamp experiments. Certain useful procedures are described herein as examples.
In some embodiments, whole-cell patch-clamp recordings were used to detect the current through hTRPV3 channels in the HEK293T cell line transfected with hTRPV3 cDNA and evaluate the exact blocking effect of compounds on hTRPV3. In some embodiments, a perfusion system was adopted to control the extracellular solution, including the addition of the agonist and different antagonists.
HEK293T cells were cultured in a Dulbecco's modified Eagle's medium containing 10% fetal bovine serum (Thermo Scientific) and 1% penicillin/streptomycin (Thermo Scientific) at 37° C. with 5% CO2. The commercially available plasmid with the full-length cDNA of hTRPV3 (791 aa) (NM_001258205.2) was purchased from OriGene Technologies. The transfection of hTRPV3 plasmids was conducted using Lipofectamine™ 3000 following the manufacturer's instructions (Invitrogen).
Whole-cell patch-clamp experiments were performed 18 h post-transfection, using a MultiClamp 700B amplifier driven by pClamp 11 software (Molecular Devices). In order to achieve good single-cell physical separation, HEK293T cells with hTRPV3 expression were digested and then re-plated at low density on glass coverslips. Electrodes were pulled from borosilicate glass with a P-97 micropipette puller (Sutter Instruments) and those with resistances of 3-5 MΩ are used for experiments. In some embodiments, an Ag—AgCl wire was used as a reference electrode and signals are filtered using a 2.9 kHz low-pass Bessel filter. Membrane potential was held at 0 mV. For recording of agonist-induced activation and inhibition by different test compounds, currents were elicited by a protocol consisting of a 400-ms step to +80 mV, followed by a 400-ms step to −80 mV at 2-s intervals. both pipette and bath solutions contained 130 mM NaCl, 0.3 mM EDTA, and 3 mM HEPES (buffered to pH 7.4 with NaOH). All recordings were made at room temperature.
All patch-clamp recordings were analyzed using the Clampfit software and GraphPad Prism 6.0 software. Specifically, data are analyzed by calculating the degree of current amplitude after the test compound addition compared with the unblocked agonist-induced current amplitude. The resulting blocking percentage at each concentration was used to make a concentration-response analysis and fitted to the Hill equation: blocking percentage=minimum blocking percentage+ (maximum blocking percentage-minimum blocking percentage)/(1+10^(Hill slope* […])). The minimum blocking percentage is 0% and maximum blocking percentage is 100%, while the Hill slope and the IC50 were determined as the curve fitting routine. Compounds of interest were tested against hTRPV3 at concentrations up to 10 μM, and certain data was used to estimate IC50 as described herein.
As usually defined, the IC50 is the point on the concentration scale where inhibition reaches its midpoint. In turn, `COc1ncnc(OC)c1C(=O)Nc1nc2c(s1)C(C)(c1ccccc1)Oc1cc(C(F)(F)F)ccc1-2` (centres unmarked) [compound 25, 4,6-dimethoxy-N-(4-methyl-4-phenyl-7-(trifluoromethyl)-4H-chromeno[4,3-d]thiazol-2-yl)pyrimidine-5-carboxamide] came in with an IC50 below 100 nM.

For `COc1ncnc(OC)c1C(=O)Nc1nc2c(s1)C1(CCCCCC1)Oc1cc(C(F)(F)F)ccc1-2` [compound 26, 4,6-dimethoxy-N-(7-(trifluoromethyl)spiro[chromeno[4,3-d]thiazole-4,1′-cycloheptan]-2-yl)pyrimidine-5-carboxamide], the 50% inhibitory concentration (IC50) lay in the range of 100 to 1000 nM.

The compound `COc1ncnc(OC)c1C(=O)Nc1nc2c(s1)C1(CCN(C(=O)OC(C)(C)C)CC1)Oc1cc(C(F)(F)F)ccc1-2` [compound 27, tert-butyl 2-(4,6-dimethoxypyrimidine-5-carboxamido)-7-(trifluoromethyl)spiro[chromeno[4,3-d]thiazole-4,4′-piperidine]-1′-carboxylate] showed an IC50 below 100 nM.

`C=CCCC1Oc2cc(C(F)(F)F)ccc2-c2nc(NC(=O)c3c(OC)ncnc3OC)sc21` (centres unmarked) [compound 28, N-(4-(but-3-en-1-yl)-7-(trifluoromethyl)-4H-chromeno[4,3-d]thiazol-2-yl)-4,6-dimethoxypyrimidine-5-carboxamide] displayed an IC50 of 100 to 1000 nM.

Compound `COc1ncnc(OC)c1C(=O)Nc1nc2c(s1)C(CCc1ccccc1)Oc1cc(C(F)(F)F)ccc1-2` (centres unmarked) [compound 29, 4,6-dimethoxy-N-(4-phenethyl-7-(trifluoromethyl)-4H-chromeno[4,3-d]thiazol-2-yl)pyrimidine-5-carboxamide] came in with an IC50 of 100 to 1000 nM.

The compound `COc1ncnc(OC)c1C(=O)Nc1nc2c(s1)C1(CCC(OCc3ccccc3)CC1)Oc1cc(C(F)(F)F)ccc1-2` (centres unmarked) [compound 30, N-(4′-(benzyloxy)-7-(trifluoromethyl)spiro[chromeno[4,3-d]thiazole-4,1′-cyclohexan]-2-yl)-4,6-dimethoxypyrimidine-5-carboxamide] registered an IC50 of 100 to 1000 nM.

`CCC1CCC2(CC1)Oc1cc(C(F)(F)F)ccc1-c1nc(NC(=O)c3c(OC)ncnc3OC)sc12` (centres unmarked) [compound 31, N-(4′-ethyl-7-(trifluoromethyl)spiro[chromeno[4,3-d]thiazole-4,1′-cyclohexan]-2-yl)-4,6-dimethoxypyrimidine-5-carboxamide] yielded a 50% inhibitory concentration (IC50) of 100 to 1000 nM.

As for `CCOC(=O)C1CCC2(CC1)Oc1cc(C(F)(F)F)ccc1-c1nc(NC(=O)c3c(OC)ncnc3OC)sc12` (centres unmarked) [compound 32, ethyl 2-(4,6-dimethoxypyrimidine-5-carboxamido)-7-(trifluoromethyl)spiro[chromeno[4,3-d]thiazole-4,1′-cyclohexane]-4′-carboxylate], the IC50 is below 100 nM.

The compound `COc1ncnc(OC)c1C(=O)Nc1nc2c(s1)C1(CCC(C)CC1)Oc1cc(C(F)(F)F)ccc1-2` (centres unmarked) [compound 33, 4,6-dimethoxy-N-(4′-methyl-7-(trifluoromethyl)spiro[chromeno[4,3-d]thiazole-4,1′-cyclohexan]-2-yl)pyrimidine-5-carboxamide] had an IC50 of 100 to 1000 nM.

`COc1ncnc(OC)c1C(=O)Nc1nc2c(s1)C1(CCC(C)(C)CC1)Oc1cc(C(F)(F)F)ccc1-2` [compound 34, N-(4′,4′-dimethyl-7-(trifluoromethyl)spiro[chromeno[4,3-d]thiazole-4,1′-cyclohexan]-2-yl)-4,6-dimethoxypyrimidine-5-carboxamide] returned a concentration for half-maximal inhibition (IC50) of 100 to 1000 nM.

`COc1ncnc(OC)c1C(=O)Nc1nc2c(s1)C1(CCCC(C)(C)C1)Oc1cc(C(F)(F)F)ccc1-2` (centres unmarked) [compound 35, N-(3′,3′-dimethyl-7-(trifluoromethyl)spiro[chromeno[4,3-d]thiazole-4,1′-cyclohexan]-2-yl)-4,6-dimethoxypyrimidine-5-carboxamide] displayed an IC50 of 100 to 1000 nM.

The compound `COc1ncnc(OC)c1C(=O)Nc1nc2c(s1)C1(CCC(c3ccc(C)cc3)CC1)Oc1cc(C(F)(F)F)ccc1-2` (centres unmarked) [compound 36, 4,6-dimethoxy-N-(4′-(p-tolyl)-7-(trifluoromethyl)spiro[chromeno[4,3-d]thiazole-4,1′-cyclohexan]-2-yl)pyrimidine-5-carboxamide] returned an IC50 of 100 to 1000 nM.

In the case of `COc1ncnc(OC)c1C(=O)Nc1nc2c(s1)C1(CC(C)CC(C)C1)Oc1cc(C(F)(F)F)ccc1-2` (centres unmarked) [compound 37, N-(3′,5′-dimethyl-7-(trifluoromethyl)spiro[chromeno[4,3-d]thiazole-4,1′-cyclohexan]-2-yl)-4,6-dimethoxypyrimidine-5-carboxamide], the IC50 was in the range of 100 to 1000 nM.

Consider `CCC1CCCC2(C1)Oc1cc(C(F)(F)F)ccc1-c1nc(NC(=O)c3c(OC)ncnc3OC)sc12` (centres unmarked) [compound 38, N-(3′-ethyl-7-(trifluoromethyl)spiro[chromeno[4,3-d]thiazole-4,1′-cyclohexan]-2-yl)-4,6-dimethoxypyrimidine-5-carboxamide], for which the IC50 was 100 to 1000 nM.

`COc1ncnc(OC)c1C(=O)Nc1nc2c(s1)C1(CCCC(NC(=O)OCc3ccccc3)C1)Oc1cc(C(F)(F)F)ccc1-2` (centres unmarked) [compound 39, benzyl(2-(4,6-dimethoxypyrimidine-5-carboxamido)-7-(trifluoromethyl)spiro[chromeno[4,3-d]thiazole-4,1′-cyclohexan]-3′-yl)carbamate] showed an IC50 of 100 to 1000 nM.

In turn, `COc1ncnc(OC)c1C(=O)Nc1nc2c(s1)C1(CCC(F)(F)CC1)Oc1cc(C(F)(F)F)ccc1-2` [compound 40, N-(4′,4′-difluoro-7-(trifluoromethyl)spiro[chromeno[4,3-d]thiazole-4,1′-cyclohexan]-2-yl)-4,6-dimethoxypyrimidine-5-carboxamide] gave an IC50 of 100 to 1000 nM.

In turn, `CCCCCCC1(C)Oc2cc(C(F)(F)F)ccc2-c2nc(NC(=O)c3c(OC)ncnc3OC)sc21` (centres unmarked) [compound 41, N-(4-hexyl-4-methyl-7-(trifluoromethyl)-4H-chromeno[4,3-d]thiazol-2-yl)-4,6-dimethoxypyrimidine-5-carboxamide] came in with an IC50 of 100 to 1000 nM.

In turn, `COc1ncnc(OC)c1C(=O)Nc1nc2c(s1)C(C)(CCc1ccccc1)Oc1cc(C(F)(F)F)ccc1-2` (centres unmarked) [compound 42, 4,6-dimethoxy-N-(4-methyl-4-phenethyl-7-(trifluoromethyl)-4H-chromeno[4,3-d]thiazol-2-yl)pyrimidine-5-carboxamide] returned an IC50 of 100 to 1000 nM.

Take `C=CCCOc1ncnc(OC)c1C(=O)Nc1nc2c(s1)C1(CCCCC1)Oc1cc(C(F)(F)F)ccc1-2` [compound 43, 4-(but-3-en-1-yloxy)-6-methoxy-N-(7-(trifluoromethyl)spiro[chromeno[4,3-d]thiazole-4,1′-cyclohexan]-2-yl)pyrimidine-5-carboxamide]: the IC50 was 100 to 1000 nM.

`C=CCCC1(C)Oc2cc(C(F)(F)F)ccc2-c2nc(NC(=O)c3c(OC)ncnc3OC)sc21` (centres unmarked) [compound 44, N-(4-(but-3-en-1-yl)-4-methyl-7-(trifluoromethyl)-4H-chromeno[4,3-d]thiazol-2-yl)-4,6-dimethoxypyrimidine-5-carboxamide]: the 50% inhibitory concentration (IC50) is below 100 nM.
